The assay addresses HBHA110–199 (Mycobacterium tuberculosis, UniProt P9WIP9). Kind of assay: ITC binding of HS hexadecasaccharides with HBHA110–199. To be noted: for n (sugar-to-protein binding ratio) / ΔG / ΔH / –TΔS: 25 °C, Tris buffer pH 7.6; for Kd / dissociation constant, KD: Tris buffer pH 7.6, 25 °C, two trials, average ± standard deviation; for Kd: read-out: dissociation constant, KD.

“Also recorded” adds a separate entry of the source.

For orientation: Kd means the equilibrium constant for the complex coming apart.

Chain of HBHA110–199 (P9WIP9 110-199): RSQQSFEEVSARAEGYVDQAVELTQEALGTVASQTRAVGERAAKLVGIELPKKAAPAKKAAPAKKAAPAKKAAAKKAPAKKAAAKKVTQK

Turning to `O=C(O)[C@@H]1O[C@@H](O[C@H]2[C@H](O)[C@@H](NS(=O)(=O)O)[C@@H](O[C@H]3[C@H](O)[C@@H](O)[C@H]4OC[C@@H]3O4)O[C@@H]2CO)[C@H](O)[C@@H](O)[C@@H]1O[C@H]1O[C@H](CO)[C@@H](O[C@@H]2O[C@@H](C(=O)O)[C@@H](O[C@H]3O[C@H](CO)[C@@H](O[C@@H]4O[C@@H](C(=O)O)[C@@H](O[C@H]5O[C@H](CO)[C@@H](O[C@@H]6O[C@@H](C(=O)O)[C@@H](O[C@H]7O[C@H](CO)[C@@H](O[C@@H]8O[C@@H](C(=O)O)[C@@H](O[C@H]9O[C@H](CO)[C@@H](O[C@@H]%10O[C@@H](C(=O)O)[C@@H](O[C@H]%11O[C@H](CO)[C@@H](O[C@@H]%12O[C@@H](C(=O)O)[C@@H](O[C@H]%13O[C@H](CO)[C@@H](O)[C@H](O)[C@H]%13NS(=O)(=O)O)[C@H](O)[C@H]%12O)[C@H](O)[C@H]%11NS(=O)(=O)O)[C@H](O)[C@H]%10O)[C@H](O)[C@H]9NS(=O)(=O)O)[C@H](O)[C@H]8O)[C@H](O)[C@H]7NS(=O)(=O)O)[C@H](O)[C@H]6O)[C@H](O)[C@H]5NS(=O)(=O)O)[C@H](O)[C@H]4O)[C@H](O)[C@H]3NS(=O)(=O)O)[C@H](O)[C@H]2O)[C@H](O)[C@H]1NS(=O)(=O)O` [compound 21], the “n (sugar-to-protein binding ratio)” value was determined as 0.23 ± 0.10, the ΔG entry is “–6.55 ± 0.06 kcal/mol”, the ΔH was 7.76 ± 4.02 kcal/mol and the “–TΔS” value was “–14.30 ± 3.96 kcal/mol”. Further, the Kd was found to be 16000 ± 1500 nM.

`CC(=O)N[C@H]1[C@@H](O[C@H]2[C@H](O)[C@@H](OS(=O)(=O)O)[C@H]3OC[C@@H]2O3)O[C@H](COS(=O)(=O)O)[C@@H](O[C@@H]2O[C@@H](C(=O)O)[C@@H](O[C@H]3O[C@H](COS(=O)(=O)O)[C@@H](O[C@@H]4O[C@@H](C(=O)O)[C@@H](O[C@H]5O[C@H](COS(=O)(=O)O)[C@@H](O[C@@H]6O[C@@H](C(=O)O)[C@@H](O[C@H]7O[C@H](COS(=O)(=O)O)[C@@H](O[C@@H]8O[C@@H](C(=O)O)[C@@H](O[C@H]9O[C@H](COS(=O)(=O)O)[C@@H](O[C@@H]%10O[C@@H](C(=O)O)[C@@H](O[C@H]%11O[C@H](COS(=O)(=O)O)[C@@H](O[C@@H]%12O[C@@H](C(=O)O)[C@@H](O[C@H]%13O[C@H](COS(=O)(=O)O)[C@@H](O[C@@H]%14O[C@@H](C(=O)O)[C@@H](O[C@H]%15O[C@H](COS(=O)(=O)O)[C@@H](O)[C@H](O)[C@H]%15NC(C)=O)[C@H](O)[C@H]%14OS(=O)(=O)O)[C@H](O)[C@H]%13NC(C)=O)[C@H](O)[C@H]%12OS(=O)(=O)O)[C@H](O)[C@H]%11NC(C)=O)[C@H](O)[C@H]%10OS(=O)(=O)O)[C@H](O)[C@H]9NC(C)=O)[C@H](O)[C@H]8OS(=O)(=O)O)[C@H](O)[C@H]7NC(C)=O)[C@H](O)[C@H]6OS(=O)(=O)O)[C@H](O)[C@H]5NC(C)=O)[C@H](O)[C@H]4OS(=O)(=O)O)[C@H](O)[C@H]3NC(C)=O)[C@H](O)[C@H]2OS(=O)(=O)O)[C@@H]1O` [compound 23]: the “n (sugar-to-protein binding ratio)” value is given as 0.27 ± 0.01, the ΔG entry was “–7.62 ± 0.02 kcal/mol”, the ΔH was 15.00 ± 0.00 kcal/mol and the “–TΔS” value was “–22.60 ± 0.00 kcal/mol”. The Kd is 2630 ± 110 nM.

On to `CC(=O)N[C@H]1[C@@H](O[C@H]2[C@H](O)[C@@H](OS(=O)(=O)O)[C@H]3OC[C@@H]2O3)O[C@H](CO)[C@@H](O[C@@H]2O[C@@H](C(=O)O)[C@@H](O[C@H]3O[C@H](CO)[C@@H](O[C@@H]4O[C@@H](C(=O)O)[C@@H](O[C@H]5O[C@H](CO)[C@@H](O[C@@H]6O[C@@H](C(=O)O)[C@@H](O[C@H]7O[C@H](CO)[C@@H](O[C@@H]8O[C@@H](C(=O)O)[C@@H](O[C@H]9O[C@H](CO)[C@@H](O[C@@H]%10O[C@@H](C(=O)O)[C@@H](O[C@H]%11O[C@H](CO)[C@@H](O[C@@H]%12O[C@@H](C(=O)O)[C@@H](O[C@H]%13O[C@H](CO)[C@@H](O[C@@H]%14O[C@@H](C(=O)O)[C@@H](O[C@H]%15O[C@H](CO)[C@@H](O)[C@H](O)[C@H]%15NC(C)=O)[C@H](O)[C@H]%14OS(=O)(=O)O)[C@H](O)[C@H]%13NC(C)=O)[C@H](O)[C@H]%12OS(=O)(=O)O)[C@H](O)[C@H]%11NC(C)=O)[C@H](O)[C@H]%10OS(=O)(=O)O)[C@H](O)[C@H]9NC(C)=O)[C@H](O)[C@H]8OS(=O)(=O)O)[C@H](O)[C@H]7NC(C)=O)[C@H](O)[C@H]6OS(=O)(=O)O)[C@H](O)[C@H]5NC(C)=O)[C@H](O)[C@H]4OS(=O)(=O)O)[C@H](O)[C@H]3NC(C)=O)[C@H](O)[C@H]2OS(=O)(=O)O)[C@@H]1O` [compound 26], for which the “dissociation constant, KD” value is reported as “no detectable binding; also recorded: no binding detected”.

As to `O=C(O)[C@@H]1O[C@@H](O[C@H]2[C@H](O)[C@@H](NS(=O)(=O)O)[C@@H](O[C@H]3[C@H](O)[C@@H](OS(=O)(=O)O)[C@H]4OC[C@@H]3O4)O[C@@H]2CO)[C@H](OS(=O)(=O)O)[C@@H](O)[C@@H]1O[C@H]1O[C@H](CO)[C@@H](O[C@@H]2O[C@@H](C(=O)O)[C@@H](O[C@H]3O[C@H](CO)[C@@H](O[C@@H]4O[C@@H](C(=O)O)[C@@H](O[C@H]5O[C@H](CO)[C@@H](O[C@@H]6O[C@@H](C(=O)O)[C@@H](O[C@H]7O[C@H](CO)[C@@H](O[C@@H]8O[C@@H](C(=O)O)[C@@H](O[C@H]9O[C@H](CO)[C@@H](O[C@@H]%10O[C@@H](C(=O)O)[C@@H](O[C@H]%11O[C@H](CO)[C@@H](O[C@@H]%12O[C@@H](C(=O)O)[C@@H](O[C@H]%13O[C@H](CO)[C@@H](O)[C@H](O)[C@H]%13NS(=O)(=O)O)[C@H](O)[C@H]%12OS(=O)(=O)O)[C@H](O)[C@H]%11NS(=O)(=O)O)[C@H](O)[C@H]%10OS(=O)(=O)O)[C@H](O)[C@H]9NS(=O)(=O)O)[C@H](O)[C@H]8OS(=O)(=O)O)[C@H](O)[C@H]7NS(=O)(=O)O)[C@H](O)[C@H]6OS(=O)(=O)O)[C@H](O)[C@H]5NS(=O)(=O)O)[C@H](O)[C@H]4OS(=O)(=O)O)[C@H](O)[C@H]3NS(=O)(=O)O)[C@H](O)[C@H]2OS(=O)(=O)O)[C@H](O)[C@H]1NS(=O)(=O)O` [compound 27], the “dissociation constant, KD” value was “no detectable binding; also recorded: no binding detected”.

`CC(=O)N[C@H]1[C@@H](O[C@H]2[C@H](O)[C@@H](O)[C@H]3OC[C@@H]2O3)O[C@H](COS(=O)(=O)O)[C@@H](O[C@@H]2O[C@@H](C(=O)O)[C@@H](O[C@H]3O[C@H](COS(=O)(=O)O)[C@@H](O[C@@H]4O[C@@H](C(=O)O)[C@@H](O[C@H]5O[C@H](COS(=O)(=O)O)[C@@H](O[C@@H]6O[C@@H](C(=O)O)[C@@H](O[C@H]7O[C@H](COS(=O)(=O)O)[C@@H](O[C@@H]8O[C@@H](C(=O)O)[C@@H](O[C@H]9O[C@H](COS(=O)(=O)O)[C@@H](O[C@@H]%10O[C@@H](C(=O)O)[C@@H](O[C@H]%11O[C@H](COS(=O)(=O)O)[C@@H](O[C@@H]%12O[C@@H](C(=O)O)[C@@H](O[C@H]%13O[C@H](COS(=O)(=O)O)[C@@H](O[C@@H]%14O[C@@H](C(=O)O)[C@@H](O[C@H]%15O[C@H](COS(=O)(=O)O)[C@@H](O)[C@H](O)[C@H]%15NC(C)=O)[C@H](O)[C@H]%14O)[C@H](O)[C@H]%13NC(C)=O)[C@H](O)[C@H]%12O)[C@H](O)[C@H]%11NC(C)=O)[C@H](O)[C@H]%10O)[C@H](O)[C@H]9NC(C)=O)[C@H](O)[C@H]8O)[C@H](O)[C@H]7NC(C)=O)[C@H](O)[C@H]6O)[C@H](O)[C@H]5NC(C)=O)[C@H](O)[C@H]4O)[C@H](O)[C@H]3NC(C)=O)[C@H](O)[C@H]2O)[C@@H]1O` [compound 31]: the “dissociation constant, KD” value was “no detectable binding; also recorded: no binding detected”.

Regarding `O=C(O)[C@@H]1O[C@@H](O[C@H]2[C@H](O)[C@@H](NS(=O)(=O)O)[C@@H](O[C@H]3[C@H](O)[C@@H](O)[C@H]4OC[C@@H]3O4)O[C@@H]2COS(=O)(=O)O)[C@H](O)[C@@H](O)[C@@H]1O[C@H]1O[C@H](COS(=O)(=O)O)[C@@H](O[C@@H]2O[C@@H](C(=O)O)[C@@H](O[C@H]3O[C@H](COS(=O)(=O)O)[C@@H](O[C@@H]4O[C@@H](C(=O)O)[C@@H](O[C@H]5O[C@H](COS(=O)(=O)O)[C@@H](O[C@@H]6O[C@@H](C(=O)O)[C@@H](O[C@H]7O[C@H](COS(=O)(=O)O)[C@@H](O[C@@H]8O[C@@H](C(=O)O)[C@@H](O[C@H]9O[C@H](COS(=O)(=O)O)[C@@H](O[C@@H]%10O[C@@H](C(=O)O)[C@@H](O[C@H]%11O[C@H](COS(=O)(=O)O)[C@@H](O[C@@H]%12O[C@@H](C(=O)O)[C@@H](O[C@H]%13O[C@H](COS(=O)(=O)O)[C@@H](O)[C@H](O)[C@H]%13NS(=O)(=O)O)[C@H](O)[C@H]%12O)[C@H](O)[C@H]%11NS(=O)(=O)O)[C@H](O)[C@H]%10O)[C@H](O)[C@H]9NS(=O)(=O)O)[C@H](O)[C@H]8O)[C@H](O)[C@H]7NS(=O)(=O)O)[C@H](O)[C@H]6O)[C@H](O)[C@H]5NS(=O)(=O)O)[C@H](O)[C@H]4O)[C@H](O)[C@H]3NS(=O)(=O)O)[C@H](O)[C@H]2O)[C@H](O)[C@H]1NS(=O)(=O)O` [compound 32], the “n (sugar-to-protein binding ratio)” value was 0.30 ± 0.01, the ΔG entry was “–7.69 ± 0.08 kcal/mol”, the ΔH came out at 11.50 ± 0.28 kcal/mol and the “–TΔS” value is listed as “–19.15 ± 0.21 kcal/mol”. In addition, the equilibrium dissociation constant (Kd) came to 2360 ± 300 nM.

The values are drawn from publication PMC12814364 (Journal of the American Chemical Society, 2025).
